Assay results taken from PubChem BioAssay AID2060330 (Molecular Pharmacology Branch, DTP, NCI, 2025).
pIC50: −log10 of the molar value. Several values for one entry are separate records, joined by “and”; a condition that tells them apart may be missing. Equal values may be shown once.

System: LG0703-F948-PDC spheroids with HUVEC/MSC, viability
Test: Anticancer human tumor LG0703-F948-PDC patient-derived lung adenocarcinoma cell line growth inhibition [IpAb]
Settings: for viability, T/C: stronger effect = lower value
Description: Combinatorial screen of targeted agents with ipatasertib and abemaciclib in multi-cell type tumor spheroids
A high-throughput screen of multi-cell type tumor spheroids was designed to identify active combinations of targeted small molecules and ipatasertib or abemaciclib. Complex spheroids include a stromal component modeled by human endothelial cells (HUVEC) and fibroblasts modeled by human mesenchymal stem cells (MSCs). The concentration ranges selected for each drug and investigational agent were based upon clinically achievable concentrations if the clinical Cmax of the agent was known.
Compounds. The drugs and investigational agents: ipatasertib (NSC767898), abemaciclib(NSC768073), selumetinib (NSC741078), trametinib (758246), adavosertib (NSC754352), everolimus (NSC733504), sapanisertib (NSC764658), vemurafenib (NSC761431), venetoclax (NSC766270), copanlisib (NSC809693), apelisib (NSC765974), palbociblib (NSC758247), vemurafenib (NSC761431), dabrafenib (NSC764134), ravoxertinib (NSC781343), BMS-387032 (NSC767048), sotorasib (NSC818433), talazoparib (NSC767125) and afursertib (NSC778305), were obtained from the National Cancer Institute (NCI) Developmental Therapeutics Program Chemical Repository. The FDA-approved anticancer drug set is available from the NCI Developmental Therapeutics Program. […] The stock solutions were prepared in dimethyl sulfoxide (DMSO, Sigma-Aldrich, St. Louis, MO, cat. D2650) at 800-fold the tested concentration and stored at -70 degrees C prior to their use. All drugs and investigational agents were tested over a range starting from a high concentration at or near the clinical Cmax and decreasing in half-log increments. If the clinical Cmax for an agent had not been determined, the highest concentration tested was 10 microM.
NCI60 Cell Culture. NCI60 cell lines were obtained from the NCI Developmental Therapeutics Program Tumor Repository. For each lot of cells, the Repository performed Applied Biosystems AmpFLSTR Identifiler testing with PCR amplification to confirm consistency with the published Identifier STR profile for each cell line. Cells were kept in continuous culture for no more than 20 passages. The optimal seeding densities for each of the cell lines at each time point assessed were determined prior to performing the concentration response studies. Briefly, the NCI60 human tumor lines were grown as monolayers in RPMI 1640 medium supplemented with 10% FBS and 2 mmol/L L-glutamine.
An additional 9 lines were from the NCI60 cell line panel including MDA-MB-231 breast carcinoma, MDA-MB-468 breast carcinoma, MCF7 breast carcinoma, Hs578T breast carcinoma, MALME-3M melanoma, SK-MEL-2 melanoma, SK-OV-3 ovarian carcinoma, DU-145 prostate carcinoma, PC-3 prostate carcinoma, all cell lines along with major genetic alterations are listed on Table 2. Pooled donor human umbilical vein endothelial cells (HUVEC, Lonza, cat. CC-2519) and human mesenchymal stem cells (hMSC, Lonza, cat. PT-2501) were purchased from Lonza (Walkersville, MD).
PDMR cell lines were grown in complete medium (DC medium): Dulbecco's modified Eagle's medium (DMEM)/F12 supplemented with 5% fetal bovine serum (FBS), 2 mM L-glutamine, 100 U/mL penicillin and 100 µg/ml streptomycin, 0.4 µg/ml hydrocortisone, 10 ng/ml epidermal growth factor (EGF) recombinant human protein, 24 µg/mL adenine, and 0.1 mg/mL primocin. During culture from frozen stock vials, PDMR cells were cultured in the same medium containing 10 µM Y-27632 (see Table 3). The PDCs were cultured in complete DMEM/F12 media without 10 microM Y-27632 dihydrochloride for at least two passages prior to the screen. The pooled donor HUVEC and hMSC were cultured in endothelial cell growth medium 2 (PromoCell, Heidelberg, Germany, cat. C-22011) and mesenchymal stem cell growth medium 2 (PromoCell, cat. C-28009), respectively. For all experiments, HUVEC and hMSC were used at passages </=5.
[…]
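Also: spheroids exposed to compounds for seven days before readout.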
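For viability, T/C in this document: T/C percent relative to DMSO vehicle wells set as 100% viability.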

Structure (SMILES)	viability, T/C (compound 0.0316 µM)	viability, T/C (compound 0.1 µM)	viability, T/C (compound 0.316 µM)	viability, T/C (compound 1 µM)	viability, T/C (compound 3.16 µM)	viability, T/C (compound 10 µM)	pIC50 (curve of compound)	further results
C=CC(=O)N1CCN(c2nc(=O)n(-c3c(C)ccnc3C(C)C)c3nc(-c4c(O)cccc4F)c(F)cc23)C(C)C1 (centres undefined)	110% and 106%	108% and 103%	119%	113% and 129%	108% and 119%	65.2% and 83%	< 5.00	
C=CCn1c(=O)c2cnc(Nc3ccc(N4CCN(C)CC4)cc3)nc2n1-c1cccc(C(C)(C)O)n1	108% and 109%	107% and 101%	96.2% and 81.3%	58% and 55.1%	19.6% and 15.7%	6.89% and 4.96%	5.89 and 5.98	
CC(=O)c1c(C)c2cnc(Nc3ccc(N4CCNCC4)cn3)nc2n(C2CCCC2)c1=O							< 6.52	viability, T/C (compound 0.000949 µM): 115% and 112%; viability, T/C (compound 0.003 µM): 112% and 98.4%; viability, T/C (compound 0.00949 µM): 103% and 102%; viability, T/C (compound 0.03 µM): 101% and 87.4%; viability, T/C (compound 0.0949 µM): 103% and 73.3%; viability, T/C (compound 0.3 µM): 84% and 77.2%
CC(C)(C)c1cnc(CSc2cnc(NC(=O)C3CCNCC3)s2)o1							6.97 and 7.11	viability, T/C (compound 0.00949 µM): 105% and 90.3%; viability, T/C (compound 0.03 µM): 84% and 77.8%; viability, T/C (compound 0.0949 µM): 58.7% and 44.8%; viability, T/C (compound 0.3 µM): 0.71% and 0.81%; viability, T/C (compound 0.949 µM): 0.43% and 0.49%; viability, T/C (compound 3 µM): 0.25% and 0.28%
CC(C)NCC(C(=O)N1CCN(c2ncnc3c2C(C)CC3O)CC1)c1ccc(Cl)cc1 (centres undefined)		81% [middle of 13 runs]	64.2% [middle of 13 runs]		44.4% [middle of 13 runs]	40.4% [middle of 13 runs]		
CC(C)n1nc(-c2ccc3oc(N)nc3c2)c2c(N)ncnc21	19.4% and 23.2%	19.6% and 22.4%					8.53 and 8.32	viability, T/C (compound 0.000316 µM): 87.8% and 89.9%; viability, T/C (compound 0.001 µM): 66.2% and 83.2%; viability, T/C (compound 0.00316 µM): 52% and 57.7%; viability, T/C (compound 0.01 µM): 32.2% and 35.2%
CC1(C)CCC(CN2CCN(c3ccc(C(=O)NS(=O)(=O)c4ccc(NCC5CCOCC5)c([N+](=O)[O-])c4)c(Oc4cnc5[nH]ccc5c4)c3)CC2)=C(c2ccc(Cl)cc2)C1	107% and 100%	106% and 101%	105% and 90.3%	101% and 95.1%	69.9% and 84.5%	14.1% and 13.4%	5.32 and 5.26	
CCCS(=O)(=O)Nc1ccc(F)c(C(=O)c2c[nH]c3ncc(-c4ccc(Cl)cc4)cc23)c1F	98.2% and 112%	99.7% and 110%	91.5% and 92.6%	105% and 111%	98.9% and 101%	76.2% and 71.7%	< 5.00	
CCN1CCN(Cc2ccc(Nc3ncc(F)c(-c4cc(F)c5nc(C)n(C(C)C)c5c4)n3)nc2)CC1	97% [middle of 13 runs]	91% [middle of 12 runs]	83.5% [middle of 13 runs]					pIC50 (compound alone, run of 06/01/2021): < 6.00
COc1c(OCCCN2CCOCC2)ccc2c3n(c(=NC(=O)c4cnc(N)nc4)nc12)CCN3	56.1% and 63.4%	20.8% and 24%	6.09% and 7.35%	3.7% and 4.95%			7.45 and 7.33	viability, T/C (compound 0.00316 µM): 96.2% and 95.4%; viability, T/C (compound 0.01 µM): 78.3% and 87.8%
